This is an account of results in article PMC9673926, “Nucleotide binding as an allosteric regulatory mechanism for Akkermansia muciniphila β-N-acetylhexosaminidase Am2136” (Gut Microbes, 2022).

One test has as its target T1, Am2136 E649A (Akkermansia muciniphila, UniProt B2UPR7, E649A).
T1 sequence (B2UPR7 20-756 E649A): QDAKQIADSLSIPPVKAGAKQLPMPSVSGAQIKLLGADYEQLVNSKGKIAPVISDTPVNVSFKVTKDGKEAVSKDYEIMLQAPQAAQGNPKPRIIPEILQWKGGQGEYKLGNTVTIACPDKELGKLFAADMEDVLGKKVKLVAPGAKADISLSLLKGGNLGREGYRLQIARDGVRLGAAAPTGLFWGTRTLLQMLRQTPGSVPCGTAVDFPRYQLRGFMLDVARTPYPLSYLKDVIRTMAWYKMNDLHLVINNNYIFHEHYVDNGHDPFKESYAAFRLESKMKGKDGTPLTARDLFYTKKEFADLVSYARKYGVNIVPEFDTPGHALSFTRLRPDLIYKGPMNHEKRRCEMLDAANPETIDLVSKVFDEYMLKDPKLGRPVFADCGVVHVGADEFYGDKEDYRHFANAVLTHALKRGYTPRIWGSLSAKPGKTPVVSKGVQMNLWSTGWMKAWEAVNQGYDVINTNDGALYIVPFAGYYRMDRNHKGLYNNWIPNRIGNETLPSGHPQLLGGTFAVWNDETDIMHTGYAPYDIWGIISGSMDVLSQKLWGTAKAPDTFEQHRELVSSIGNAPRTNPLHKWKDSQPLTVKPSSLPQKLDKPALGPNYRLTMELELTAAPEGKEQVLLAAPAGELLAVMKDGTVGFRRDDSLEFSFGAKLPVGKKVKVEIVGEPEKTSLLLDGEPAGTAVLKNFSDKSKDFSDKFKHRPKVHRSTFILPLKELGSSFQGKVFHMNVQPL
Description: GDP regulated enzyme activity assay, mutant. The following applies: 1 mM GDP, substrate pNP-β-GlcNAc.

In test [1] the target is T2, Am2136 WT (Akkermansia muciniphila, UniProt B2UPR7).
T2 construct: The coding region (residue Q20-L756) of Am2136 without signal peptide was based on UniProt; 6XHis (N); made in house; host or cells: E. coli BL21 (DE3)
The test can be described thus: Nucleotide binding affinity by intrinsic fluorescence. Here is the method:
The nucleotide binding ability was determined on Fluorescence Spectrometer Duetta (HORIBA) by measuring the change of peak intensity. The fluorescence was excited at 286 nm and emitted at 336 nm. And the measurement was processed under 400 V voltage with 2.5 nm excitation slit and 5 nm emission slit. […] The sample was incubated at 4°C for 5 min before testing.

Test [2] concerns the target T2, Am2136 WT. Description: Enzyme activity assay (pNP-β-GlcNAc hydrolysis) regulated by nucleotides. The format is biochemical.
A further test deals with T3, Am2136 R256A (Akkermansia muciniphila, UniProt B2UPR7, R256A).
T3 sequence (B2UPR7 20-756 R256A): T1 sequence (B2UPR7 20-756 E649A) with R237A, A630E
The test can be described thus: GDP regulated enzyme activity assay, mutant. Conditions: 1 mM GDP, substrate pNP-β-GlcNAc.

Positions count from the first letter of the chain named.

T2 sequence (B2UPR7 20-756): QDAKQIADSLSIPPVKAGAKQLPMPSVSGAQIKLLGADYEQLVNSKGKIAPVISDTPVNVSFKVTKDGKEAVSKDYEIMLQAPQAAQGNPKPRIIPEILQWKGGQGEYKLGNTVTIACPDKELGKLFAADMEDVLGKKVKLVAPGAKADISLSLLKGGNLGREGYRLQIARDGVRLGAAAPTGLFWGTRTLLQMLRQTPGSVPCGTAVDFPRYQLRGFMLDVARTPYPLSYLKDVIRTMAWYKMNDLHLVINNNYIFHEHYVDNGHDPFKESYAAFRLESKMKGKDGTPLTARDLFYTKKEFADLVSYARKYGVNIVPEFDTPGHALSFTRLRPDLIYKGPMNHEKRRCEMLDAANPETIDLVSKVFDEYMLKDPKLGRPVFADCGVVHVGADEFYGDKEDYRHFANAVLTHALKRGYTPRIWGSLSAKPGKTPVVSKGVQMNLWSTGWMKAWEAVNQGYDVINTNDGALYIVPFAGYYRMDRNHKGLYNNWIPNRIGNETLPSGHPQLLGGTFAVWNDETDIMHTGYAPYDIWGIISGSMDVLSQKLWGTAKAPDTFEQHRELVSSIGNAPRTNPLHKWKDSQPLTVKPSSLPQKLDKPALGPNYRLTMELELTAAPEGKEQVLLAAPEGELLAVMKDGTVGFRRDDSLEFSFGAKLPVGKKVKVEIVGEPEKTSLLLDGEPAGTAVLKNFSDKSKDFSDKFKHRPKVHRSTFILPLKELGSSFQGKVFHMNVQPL

With `Nc1nc2c(ncn2[C@@H]2O[C@H](COP(=O)(O)OP(=O)(O)O)[C@@H](O)[C@H]2O)c(=O)[nH]1` [GDP], the Vmax – broadly, the rate approached at saturating substrate – turned out to be 453 ± 6 µmol/min at Am2136 E649A; 442 ± 7 µmol/min on Am2136 WT [2] (WT, 1 mM nucleotide, substrate pNP-β-GlcNAc, 37°C); 465 ± 15 µmol/min on Am2136 R256A. Moreover, the Kd (as a rule, the free concentration of one partner at which half of the binding sites on the other are occupied at equilibrium, for simple one-to-one binding) came to 116 µM at Am2136 WT [1] (Am2136 WT, fluorescence ex 286 nm/em 336 nm); 114 ± 5.22 µM on Am2136 WT [1] (WT dialyzed (EDTA treated)); 117 ± 4.37 µM on Am2136 WT [1] (WT dialyzed + Ca^2+); 118 ± 5.85 µM on Am2136 WT [1] (WT dialyzed + Mg^2+). For the same compound, the “maximal activation of Am2136” value at Am2136 WT [2] (1 mM GDP) is recorded as “up to twofold”. The “effect on Am2136 hydrolysis activity” value at Am2136 WT [2] (GDP 0–2.65 mM, substrate pNP-β-GlcNAc) is recorded as “concentration-dependent enhancement”.
